Source: PMC10853020 (Journal of medicinal chemistry, 2023)

Tests used:
h5-HT2CR = biological target: T1, h5-HT2CR (Homo sapiens, UniProt P28335); assay: 5-HT-induced Cai^2+ release in h5-HT2CR-CHO cells; format: cell-based; settings: 1 nM
T1 sequence (P28335 33-458): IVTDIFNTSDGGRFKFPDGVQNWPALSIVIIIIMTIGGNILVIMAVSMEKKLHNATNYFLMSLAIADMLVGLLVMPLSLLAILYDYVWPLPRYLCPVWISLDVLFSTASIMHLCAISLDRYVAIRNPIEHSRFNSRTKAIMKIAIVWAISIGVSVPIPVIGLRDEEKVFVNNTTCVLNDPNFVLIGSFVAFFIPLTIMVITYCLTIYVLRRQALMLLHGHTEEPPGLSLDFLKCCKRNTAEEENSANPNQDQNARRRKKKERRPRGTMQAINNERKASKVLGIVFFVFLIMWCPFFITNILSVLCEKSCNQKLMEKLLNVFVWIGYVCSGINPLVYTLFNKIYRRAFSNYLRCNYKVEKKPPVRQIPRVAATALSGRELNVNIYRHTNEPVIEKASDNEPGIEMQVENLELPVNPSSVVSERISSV

HERG = HERG (Homo sapiens, UniProt Q12809); assay: NIMH PDSP radioligand binding displacement
σ2 receptor = biological target: T2, σ2 receptor (Rattus norvegicus, UniProt Q5U3Y7); assay: NIMH PDSP radioligand binding displacement
T2 sequence (Q5U3Y7 1-176): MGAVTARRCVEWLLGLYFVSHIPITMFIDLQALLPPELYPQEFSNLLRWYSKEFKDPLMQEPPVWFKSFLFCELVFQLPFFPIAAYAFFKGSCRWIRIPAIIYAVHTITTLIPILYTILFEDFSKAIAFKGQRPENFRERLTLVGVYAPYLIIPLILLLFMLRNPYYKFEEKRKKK

male Sprague–Dawley rats = assay: Novelty-induced; format: in vivo, rat; settings: 30 mg/kg ip, 30 min prior; vs vehicle; p < 0.0001

Sequence of HERG (Q12809 whole entry): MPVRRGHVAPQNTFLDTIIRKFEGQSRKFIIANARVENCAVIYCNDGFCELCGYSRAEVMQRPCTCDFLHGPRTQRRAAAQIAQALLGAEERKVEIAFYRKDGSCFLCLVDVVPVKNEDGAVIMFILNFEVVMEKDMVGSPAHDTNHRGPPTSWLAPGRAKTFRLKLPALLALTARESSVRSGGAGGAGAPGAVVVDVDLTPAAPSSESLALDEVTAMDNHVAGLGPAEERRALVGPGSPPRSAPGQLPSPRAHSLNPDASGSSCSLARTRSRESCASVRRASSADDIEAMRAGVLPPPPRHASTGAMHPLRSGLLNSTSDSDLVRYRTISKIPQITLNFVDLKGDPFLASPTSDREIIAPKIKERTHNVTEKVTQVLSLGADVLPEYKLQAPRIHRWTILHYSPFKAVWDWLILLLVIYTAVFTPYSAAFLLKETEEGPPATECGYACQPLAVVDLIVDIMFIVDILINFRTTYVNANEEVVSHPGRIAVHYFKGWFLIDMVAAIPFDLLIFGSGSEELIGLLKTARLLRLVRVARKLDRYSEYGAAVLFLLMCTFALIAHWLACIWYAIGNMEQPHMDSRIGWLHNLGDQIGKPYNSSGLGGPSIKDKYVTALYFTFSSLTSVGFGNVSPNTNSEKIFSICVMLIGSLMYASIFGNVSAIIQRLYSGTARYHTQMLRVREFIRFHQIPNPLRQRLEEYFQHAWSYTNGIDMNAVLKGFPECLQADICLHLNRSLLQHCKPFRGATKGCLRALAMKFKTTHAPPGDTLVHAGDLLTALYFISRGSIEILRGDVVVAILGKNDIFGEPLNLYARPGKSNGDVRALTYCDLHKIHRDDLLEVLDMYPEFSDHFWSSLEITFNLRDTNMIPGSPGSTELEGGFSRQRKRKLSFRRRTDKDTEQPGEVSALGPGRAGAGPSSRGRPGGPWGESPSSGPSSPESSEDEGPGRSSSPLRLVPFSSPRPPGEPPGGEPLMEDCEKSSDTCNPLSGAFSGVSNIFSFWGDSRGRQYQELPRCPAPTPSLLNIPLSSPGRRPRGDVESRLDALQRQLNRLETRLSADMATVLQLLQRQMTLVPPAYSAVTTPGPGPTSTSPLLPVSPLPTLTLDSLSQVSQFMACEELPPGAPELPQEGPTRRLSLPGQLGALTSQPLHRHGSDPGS

Row | SMILES | 5-HT2CR PAM activity (h5-HT2CR) | also measured
1 | CCCCCCCC/C=C\CCCCCCCC(=O)NC[C@H](O)CO [Compound 10, (S)-N-(2,3-Dihydroxypropyl)oleamide] | inactive | 
2 | CCCCCCCC/C=C\CCCCCCCC(=O)NC(CO)CO [Compound 11, N-(1,3-Dihydroxypropan-2-yl)oleamide] |  | displacement of binding to the hERG potassium channel (HERG): did not displace binding
3 | CCCCCCCC/C=C\CCCCCCCC(=O)NC(CO)(CO)CO [Compound 13, N-(1,3-Dihydroxy-2-(hydroxymethyl)propan-2-yl)oleamide] |  | Ki (σ2 receptor): 3.6 µM; total ambulations over a 90 min session (male Sprague–Dawley rats): significantly reduced total ambulations vs vehicle

Further lines, with some results ahead:

Row | 5-HT2CR PAM activity (h5-HT2CR) | SMILES | also measured
4 | potentiated 5-HT-evoked Cai^2+ release | CCCCCCCC/C=C\CCCCCCCC(=O)NCCCO [Compound 8, N-(3-Hydroxypropyl)oleamide] | 
5 | did not evoke PAM activity | CCCCCCCC/C=C\CCCCCCCC(=O)NCC(OCC)OCC [Compound 14, N-(2,2-Diethoxyethyl)oleamide] | 
